Patent publication US7745390B2, “Antimicrobial peptides” (priority 2005, dated 2010)
Bridge positions count the residues as written; N and C are the ends. Square brackets hold non-standard residues; d marks the D form. Peptide text beside a SMILES is read from it. Chg = N[C@H](C(=O)O)C1CCCCC1

Columns and labels:
[1] = test system: B. cereus; format: cell-based; conditions: pH 7.2
Procedure: (§1) The experiments described above characterizing the activity of granulysin peptides G1-G18 relied on counting bacterial colonies on plates. This assay is quite labor intensive and would not allow evaluation of many different compounds on a number of different microbes. Therefore, we optimized an assay in which the entire procedure could be completed in a single microtiter well. Briefly, peptides are diluted in 10 mM phosphate buffer, pH 7.2 supplemented with 0.03% LB (J. Sambrook, D. W. Russell, Molecular Cloning: A Laboratory Manual (Cold Spring Harbor Laboratory Press, New York, ed. 3, 2001) pg. A2.2, Retrieved from http://openwetware.org/wiki/LB) and 25 μl is added to microtiter wells. Bacteria (25 μl) are added (˜5×10^6 colony forming units/ml) in the same buffer. After a 3-hour incubation at 37° C., 150 μl of LB is added and the plates are incubated overnight. The OD at 600 nm is read on an ELISA plate reader. The minimum inhibitory concentration (MIC) is the lowest concentration allowing no bacterial growth. The IC50 is the concentration of peptide that results in 50% growth compared to the medium.
(§2) We now describe additional peptides and their activity. The peptides have been designed, synthesized, and have been tested for lysis of E. coli and S. typhimurium (gram negative bacteria), B. cereus (gram positive bacterium). Results are shown in Table 2 along with the amino acid sequence of the peptide. Changes from the naturally occurring sequence are underlined. In general, the desired result is lysis of bacteria at low concentration (<1 μM).
(§3) In Table 2, Columns 2-7 are the MIC and IC50 (concentration required for 50% inhibition of growth) for each organism (E. coli, Salmonella, and B. cereus). The MIC (minimum inhibitory concentration) was determined as described above, in a multiwell plate assay. […] L-isomer amino acids are designated by capital letters while D-isomer amino acids are designated by lower case letters.

[2] = test system: E. coli DH5a; format: cell-based; conditions: DH5a, pH 7.2
Procedure: as §1, §2, §3

[3] = test system: Salmonella; format: cell-based, S. typhimurium; conditions: pH 7.2
Procedure: as §1, §2, §3

CSCC[C@@H]1NC(=O)[C@H](Cc2ccccc2)NC(=O)[C@H](CCCCN)NC(=O)[C@H](CCCCN)NC(=O)[C@H](CO)NC(=O)[C@H](C(C)C)NC(=O)[C@H](CCCCN)NC(=O)[C@H](CCCCN)NC(=O)[C@@H](N)CSSC[C@@H](C(N)=O)NC(=O)[C@H](CCCCN)NC(=O)[C@H](CCCCN)NC(=O)[C@H](CCSC)NC(=O)[C@H](Cc2ccccc2)NC(=O)[C@H](CCCCN)NC(=O)[C@H](CCCCN)NC(=O)[C@H](CO)NC(=O)[C@H](C(C)C)NC(=O)[C@H](CCCCN)NC(=O)[C@H](CCCCN)NC(=O)[C@H](CO)NC(=O)CNC(=O)[C@H](CCCCN)NC(=O)[C@H](CCCCN)NC1=O [G11.31 CYC] (H-CKKVSKKFMKKGSKKVSKKFMKKC-NH2; disulfide 1-24; N-terminus assumed)
B. cereus MIC [1]: 0.7 µM | IC50 [1]: 400 nM | E. coli DH5a MIC [2]: 0.61 µM | IC50 [2]: 420 nM | IC50 [3]: 410 nM | Salmonella MIC [3]: 0.7 µM

CSCC[C@H](NC(=O)[C@H](Cc1ccccc1)NC(=O)[C@H](CCCCN)NC(=O)[C@H](CCCCN)NC(=O)[C@H](CO)NC(=O)[C@@H](NC(=O)[C@H](CCCCN)NC(=O)[C@H](CCCCN)NC(=O)[C@H](CO)NC(=O)CNC(=O)[C@H](CCCCN)NC(=O)[C@H](CCCCN)NC(=O)[C@H](CCSC)NC(=O)[C@H](Cc1ccccc1)NC(=O)[C@H](CCCCN)NC(=O)[C@H](CCCCN)NC(=O)[C@H](CO)NC(=O)[C@@H](NC(=O)[C@H](CCCCN)NC(=O)[C@@H](N)CCCCN)C(C)C)C(C)C)C(=O)N[C@@H](CCCCN)C(=O)N[C@@H](CCCCN)C(=O)O [Peptide G11.15]
B. cereus MIC [1]: >10 µM | IC50 [1]: 5850 nM | E. coli DH5a MIC [2]: 1.38 µM | IC50 [2]: 800 nM | IC50 [3]: 410 nM | Salmonella MIC [3]: 0.7 µM

CSCC[C@H](NC(=O)[C@H](Cc1ccccc1)NC(=O)[C@H](CCCNC(=N)N)NC(=O)[C@H](CCCNC(=N)N)NC(=O)[C@@H](NC(=O)[C@@H](NC(=O)[C@H](CCCNC(=N)N)NC(=O)[C@@H](N)CCCNC(=N)N)C(C)C)C1CCCCC1)C(=O)N[C@@H](CCCNC(=N)N)C(=O)N[C@@H](CCCNC(=N)N)C(=O)O [Peptide G11.18, RRV-Chg-RRFMRR] (H-RRV[Chg]RRFMRR-OH; N-terminus and C-terminus assumed)
B. cereus MIC [1]: 5.7 µM | IC50 [1]: 3510 nM | E. coli DH5a MIC [2]: 5.65 µM | IC50 [2]: 3400 nM | IC50 [3]: 880 nM | Salmonella MIC [3]: 1.4 µM

CSCC[C@@H](NC(=O)[C@@H](Cc1ccccc1)NC(=O)[C@@H](CCCNC(=N)N)NC(=O)[C@@H](CCCNC(=N)N)NC(=O)[C@@H](CO)NC(=O)[C@H](NC(=O)[C@@H](CCCNC(=N)N)NC(=O)[C@H](N)CCCNC(=N)N)C(C)C)C(=O)N[C@H](CCCNC(=N)N)C(=O)N[C@H](CCCNC(=N)N)C(=O)O [Peptide G11.24, rrvsrrfmrr] (H-[dR][dR][dV][dS][dR][dR][dF][dM][dR][dR]-OH; N-terminus and C-terminus assumed)
B. cereus MIC [1]: >10 µM | IC50 [1]: > 10000 nM | E. coli DH5a MIC [2]: 1.4 µM | IC50 [2]: 850 nM | IC50 [3]: 850 nM | Salmonella MIC [3]: 1.4 µM

CSCC[C@H](NC(=O)[C@H](Cc1ccccc1)NC(=O)[C@@H](CCCNC(=N)N)NC(=O)[C@@H](CCCNC(=N)N)NC(=O)[C@H](CO)NC(=O)[C@H](NC(=O)[C@@H](CCCNC(=N)N)NC(=O)[C@@H](N)CCCNC(=N)N)C(C)C)C(=O)N[C@H](CCCNC(=N)N)C(=O)N[C@@H](CCCNC(=N)N)C(=O)N[C@@H](CC(=O)O)C(N)=O [Peptide G11.45, RrvSrrFMrRD] (H-R[dR][dV]S[dR][dR]FM[dR]RD-NH2; N-terminus assumed)
B. cereus MIC [1]: >10 µM | IC50 [1]: > 10000 nM | E. coli DH5a MIC [2]: >10 µM | IC50 [2]: > 10000 nM | IC50 [3]: > 10000 nM | Salmonella MIC [3]: >10 µM

CSCC[C@H](NC(=O)[C@H](Cc1ccccc1)NC(=O)[C@@H](CCCNC(=N)N)NC(=O)[C@@H](CCCNC(=N)N)NC(=O)[C@H](CO)NC(=O)[C@@H](NC(=O)[C@@H](CCCNC(=N)N)NC(=O)[C@@H](CCCNC(=N)N)NC(=O)[C@@H](CCCNC(=N)N)NC(=O)[C@@H](CCCNC(=N)N)NC(=O)[C@@H](CCCNC(=N)N)NC(=O)[C@@H](CCCNC(=N)N)NC(=O)[C@@H](CCCNC(=N)N)NC(=O)[C@H](CCC(N)=O)NC(=O)[C@H](CC(C)C)NC(=O)[C@H](CCCCN)NC(=O)[C@H](CO)NC(=O)[C@H](CO)NC(=O)[C@H](Cc1c[nH]cn1)NC(=O)[C@H](CC(=O)O)NC(=O)CNC(=O)CNC(=O)[C@H](CC(=O)O)NC(=O)CNC(=O)CNC(=O)[C@@H](N)CC(=O)O)C(C)C)C(=O)N[C@H](CCCNC(=N)N)C(=O)N[C@H](CCCNC(=N)N)C(=O)O [Peptide G11.47, DGGDGGDHSSKLQrrrrrrrVSrrFMrr] (H-DGGDGGDHSSKLQ[dR][dR][dR][dR][dR][dR][dR]VS[dR][dR]FM[dR][dR]-OH; N-terminus and C-terminus assumed)
B. cereus MIC [1]: 0.32 µM | IC50 [1]: 100 nM | E. coli DH5a MIC [2]: 0.18 µM | IC50 [2]: 100 nM | IC50 [3]: 150 nM | Salmonella MIC [3]: 0.45 µM

CSCC[C@H](NC(=O)[C@H](Cc1ccccc1)NC(=O)[C@H](CCCNC(=N)N)NC(=O)[C@H](CCCNC(=N)N)NC(=O)[C@H](CO)NC(=O)[C@@H](NC(=O)[C@H](CCCNC(=N)N)NC(=O)[C@H](CCCNC(=N)N)NC(=O)[C@H](CS)NC(=O)[C@H](CS)NC(=O)[C@H](CCCNC(=N)N)NC(=O)[C@H](CCCNC(=N)N)NC(=O)[C@@H](NC(=O)[C@H](CO)NC(=O)[C@H](CCCNC(=N)N)NC(=O)[C@H](CCCNC(=N)N)NC(=O)[C@H](Cc1ccccc1)NC(=O)[C@H](CCSC)NC(=O)[C@H](CCCNC(=N)N)NC(=O)[C@@H](N)CCCNC(=N)N)C(C)C)C(C)C)C(=O)N[C@@H](CCCNC(=N)N)C(=O)N[C@@H](CCCNC(=N)N)C(=O)O [Peptide G11.48] (H-RRMFRRSVRRCCRRVSRRFMRR-OH; N-terminus and C-terminus assumed)
B. cereus MIC [1]: 5.7 µM | IC50 [1]: 3550 nM | E. coli DH5a MIC [2]: >10 µM | IC50 [2]: 2100 nM | IC50 [3]: > 10000 nM | Salmonella MIC [3]: >10 µM

CSCC[C@@H](NC(=O)[C@@H](Cc1ccccc1)NC(=O)[C@@H](CCCCN)NC(=O)[C@@H](CCCCN)NC(=O)[C@@H](CO)NC(=O)[C@H](NC(=O)[C@@H](CCCCN)NC(=O)[C@@H](CCCCN)NC(=O)[C@@H](CO)NC(=O)CNC(=O)[C@@H](CCCCN)NC(=O)[C@@H](CCCCN)NC(=O)[C@@H](CCSC)NC(=O)[C@@H](Cc1ccccc1)NC(=O)[C@@H](CCCCN)NC(=O)[C@@H](CCCCN)NC(=O)[C@@H](CO)NC(=O)[C@H](NC(=O)[C@@H](CCCCN)NC(=O)[C@H](N)CCCCN)C(C)C)C(C)C)C(=O)N[C@H](CCCCN)C(=O)N[C@H](CCCCN)C(=O)O [Peptide G11.54, kkvskkfmkkgskkvskkfmkk]
B. cereus MIC [1]: 0.35 µM | IC50 [1]: 210 nM | E. coli DH5a MIC [2]: >10 µM | IC50 [2]: 8250 nM | IC50 [3]: > 10000 nM | Salmonella MIC [3]: >10 µM

CSCC[C@@H](NC(=O)[C@@H](Cc1ccccc1)NC(=O)[C@@H](CCCCN)NC(=O)[C@@H](CCCCN)NC(=O)[C@@H](CO)NC(=O)[C@H](NC(=O)[C@@H](CCCCN)NC(=O)[C@@H](CCCCN)NC(=O)[C@@H](CO)NC(=O)CNC(=O)[C@@H](CCCCN)NC(=O)[C@@H](CCCCN)NC(=O)[C@@H](CCSC)NC(=O)[C@@H](Cc1ccccc1)NC(=O)[C@@H](CCCCN)NC(=O)[C@@H](CCCCN)NC(=O)[C@@H](CO)NC(=O)[C@H](NC(=O)[C@@H](CCCCN)NC(=O)[C@@H](CCCCN)NC(=O)[C@@H](CO)NC(=O)CNC(=O)[C@@H](CCCCN)NC(=O)[C@@H](CCCCN)NC(=O)[C@@H](CCSC)NC(=O)[C@@H](Cc1ccccc1)NC(=O)[C@@H](CCCCN)NC(=O)[C@@H](CCCCN)NC(=O)[C@@H](CO)NC(=O)[C@H](NC(=O)[C@@H](CCCCN)NC(=O)[C@H](N)CCCCN)C(C)C)C(C)C)C(C)C)C(=O)N[C@H](CCCCN)C(=O)N[C@H](CCCCN)C(=O)O [Peptide G11.55, kkvskkfmkkgskkvskkfmkkgskkvskkfmkk] (H-[dK][dK][dV][dS][dK][dK][dF][dM][dK][dK]G[dS][dK][dK][dV][dS][dK][dK][dF][dM][dK][dK]G[dS][dK][dK][dV][dS][dK][dK][dF][dM][dK][dK]-OH; N-terminus and C-terminus assumed)
B. cereus MIC [1]: 0.2 µM | IC50 [1]: 100 nM | E. coli DH5a MIC [2]: 4 µM | IC50 [2]: 980 nM | IC50 [3]: > 10000 nM | Salmonella MIC [3]: >10 µM
